Data taken from ChEMBL document CHEMBL1201862, “PubChem BioAssay data set” (2004).
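Step 1: Grow cells in 96-well plates. Step 2: Expose to compound for 48 hours at 5 concentrations. Step 3: Interpolate endpoints linearly; if unreached, use highest concentration. GI50 marks 50% less growth.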 Active and inactive are the calls of the source. No stated cut-off is given here; in the data, active = GI50 up to about 1.1 µM and inactive = higher.

Assays:
Experiment in all cases: NCI anticancer screen, dose series, 48 h
[1] = tested on: SK-MEL-5
[2] = tested on: KM12
[3] = tested on: SF-295
[4] = tested on: SF-539
[5] = tested on: SK-MEL-2
[6] = tested on: NCI-H522
[7] = tested on: U-251
[8] = tested on: SNB-19
[9] = tested on: M14
[10] = tested on: HOP-62
[11] = tested on: COLO 205
[12] = tested on: T47D
[13] = tested on: BT-549
[14] = tested on: OVCAR-8
[15] = tested on: SW-620
[16] = tested on: HCT-116
[17] = tested on: NCI-H226
[18] = tested on: SR
[19] = tested on: MDA-MB-435
[20] = tested on: UACC-257

Measured: GI50

COc1cc(Nc2n[nH]c(NS(=O)(=O)c3cc(C)c(Cl)cc3S)n2)cc(OC)c1OC
inactive: [1] > 100 µM | [2] > 100 µM | [3] > 100 µM | [4] > 100 µM | [5] > 100 µM | [6] > 100 µM | [7] > 100 µM | [8] > 100 µM | [9] > 100 µM | [10] > 100 µM | [11] > 100 µM | [12] > 100 µM | [13] > 100 µM | [14] > 100 µM | [15] > 100 µM | [16] > 100 µM | [17] > 100 µM | [18] > 100 µM | [19] > 100 µM | [20] > 100 µM

C/C(=N\NC(=O)c1ccncc1)c1ccccc1Cl
inactive: [1] > 100 µM | [2] > 100 µM | [3] > 100 µM | [4] > 100 µM | [5] > 100 µM | [6] > 100 µM | [7] > 100 µM | [8] > 100 µM | [9] > 100 µM | [10] > 100 µM | [11] > 100 µM | [12] > 100 µM | [13] > 100 µM | [14] > 100 µM | [15] > 100 µM | [16] > 100 µM | [17] > 100 µM | [18] > 100 µM | [19] > 100 µM | [20] > 100 µM

COC(=O)[C@H]1C[C@H]1NC(=O)C(CC(=O)OCc1ccccc1)NC(=O)OCc1ccccc1 (stereo not given in full)
inactive: [1] 25.4 µM | [2] 31.6 µM | [3] 50.7 µM | [4] 97.5 µM | [5] 18.6 µM | [6] 40.8 µM | [7] 81.5 µM | [8] > 100 µM | [9] 25.7 µM | [10] > 10 µM | [11] 24.4 µM | [12] 11.9 µM | [13] 23.4 µM | [14] 40 µM | [15] > 100 µM | [16] 47.6 µM | [17] 89.5 µM | [18] 29.8 µM | [19] 35 µM | [20] 86.7 µM

CC(C)(C)c1ccc(C(C)(C)C)c(N2C(=O)[C@@H]3[C@@H]4C=C[C@@H](C4)[C@]3(C)C2=O)c1
inactive: [1] 30.8 µM | [2] 36.6 µM | [3] 27.7 µM | [4] 51.5 µM | [5] 20.6 µM | [6] 16.1 µM | [7] 18.7 µM | [8] > 100 µM | [9] 19.5 µM | [10] 44 µM | [11] 42.2 µM | [12] 18.4 µM | [13] 22.4 µM | [14] 14.6 µM | [15] 21.1 µM | [16] 15.5 µM | [17] 26.9 µM | [18] 5.2 µM | [19] 15.5 µM | [20] 23.1 µM

O=C(NCCCCNCCCNC(=O)C(F)(F)F)C(F)(F)F
inactive: [1] > 100 µM | [2] > 100 µM | [3] 32.6 µM | [4] > 100 µM | [5] > 100 µM | [6] > 100 µM | [7] > 100 µM | [8] > 100 µM | [9] > 100 µM | [10] > 100 µM | [11] > 100 µM | [12] > 100 µM | [13] > 100 µM | [14] > 100 µM | [15] > 100 µM | [16] > 100 µM | [17] > 100 µM | [18] > 100 µM | [19] > 100 µM | [20] > 100 µM

NC1=Nc2cc(C(F)(F)F)ccc2Sc2nc3ccccc3n21
inactive: [1] 6.73 µM | [2] > 37 µM | [3] > 57.9 µM | [4] > 46.5 µM | [5] 55.8 µM | [6] 10.4 µM | [7] 5.56 µM | [8] 15.6 µM | [9] 3.98 µM | [10] > 60 µM | [11] > 21.2 µM | [12] 26.6 µM | [13] > 100 µM | [14] 12.5 µM | [15] > 100 µM | [16] 3.73 µM | [17] 12.1 µM | [18] 3.61 µM | [19] > 100 µM | [20] 41.2 µM

COc1ccc(/N=c2/oc3ccccc3cc2C(N)=O)cc1
inactive: [1] > 100 µM | [2] 43.3 µM | [3] 26.3 µM | [4] 23.1 µM | [5] 55.2 µM | [6] 13.4 µM | [7] 33.3 µM | [8] 1.91 µM | [9] 55.2 µM | [10] 17.2 µM | [11] > 100 µM | [12] > 100 µM | [13] 32.3 µM | [14] 27.4 µM | [15] > 100 µM | [16] 26 µM | [17] 65.9 µM | [18] > 100 µM | [19] 92.5 µM | [20] > 100 µM

CCOC(=O)C1=NNC(C(=O)c2ccccc2)C1c1ccccc1 (stereo not given)
inactive: [1] 1.8 µM | [2] 6.87 µM | [3] 16.9 µM | [4] 2.17 µM | [5] 16.2 µM | [6] 1.15 µM | [7] 3.39 µM | [8] 14.4 µM | [9] 1.9 µM | [10] 12.2 µM | [11] 2.05 µM | [12] 4.24 µM | [13] 2.08 µM | [14] 5.51 µM | [15] 1.75 µM | [16] 2.52 µM | [17] 18.1 µM | [18] 1.81 µM | [19] 1.91 µM | [20] 2.61 µM

C=C1C[C@H](O)[C@H]2C(C[Se]c3ccccc3)C(=O)O[C@@H]2[C@H]2[C@H](C)C(O)C[C@@H]12 (stereo not given in full)
inactive: [1] 33.6 µM | [2] 40 µM | [3] 75.9 µM | [4] 55.3 µM | [5] 66.2 µM | [6] 17.5 µM | [7] 16.4 µM | [8] > 100 µM | [9] 31.5 µM | [10] > 100 µM | [11] 50.7 µM | [12] 28.3 µM | [13] 28.8 µM | [14] 41.8 µM | [15] 27.5 µM | [16] 23.1 µM | [17] 23.1 µM | [18] 23.4 µM | [19] 80.2 µM | [20] 37.9 µM

COC(=O)[C@@]1(Cc2ccc(O)cc2)C[C@@H]2Cc3ccccc3N2N1
inactive: [1] 34.5 µM | [2] > 100 µM | [3] 49.1 µM | [4] > 100 µM | [5] 25.4 µM | [6] 58.2 µM | [7] 57.1 µM | [8] > 100 µM | [9] 38.8 µM | [10] > 100 µM | [11] 79.1 µM | [12] 23.5 µM | [13] 45 µM | [14] 71.8 µM | [15] > 100 µM | [16] 65.3 µM | [17] 90.8 µM | [18] 31.3 µM | [19] > 100 µM | [20] 23.3 µM

CC1CC[C@@]2(OC1)OC1C[C@H]3[C@@H]4CC[C@H]5CC(OC6OC(CO)C(OC7OC(CO)C(O)C(O)C7O)C(O)C6O)CCC5(C)[C@H]4CCC3(C)C1[C@@H]2C (stereo not given in full)
inactive: [1] 8.69 µM | [2] 8.18 µM | [3] 8.55 µM | [4] 8.38 µM | [5] 7.85 µM | [6] 6.19 µM | [7] 8.99 µM | [8] 9.04 µM | [9] 8.89 µM | [10] 6.03 µM | [11] 6.89 µM | [12] 9.31 µM | [13] 4.86 µM | [14] 8.45 µM | [15] 8.81 µM | [16] 7.53 µM | [17] 8.81 µM | [18] 9.59 µM | [19] 9.25 µM | [20] 9.64 µM

O=C1c2ccccc2C2CNC1(O)c1ccccc12 (stereo not given)
inactive: [1] > 100 µM | [2] > 100 µM | [3] > 100 µM | [4] > 100 µM | [5] > 100 µM | [6] > 100 µM | [7] > 100 µM | [8] > 100 µM | [9] > 100 µM | [10] > 100 µM | [11] > 100 µM | [12] > 100 µM | [13] > 100 µM | [14] > 100 µM | [15] > 100 µM | [16] > 100 µM | [17] 35.1 µM | [18] > 100 µM | [19] > 100 µM | [20] > 100 µM

Cn1cc(S(=O)(=O)NC(=O)Nc2ccc(Cl)cc2)c2ccccc21
inactive: [1] 73.5 µM | [2] 28.5 µM | [3] 43.6 µM | [4] 11.1 µM | [5] 54.7 µM | [6] 24.5 µM | [7] 41.9 µM | [8] > 100 µM | [9] > 100 µM | [10] 15.1 µM | [11] 30.3 µM | [12] 28.6 µM | [13] > 100 µM | [14] 82.2 µM | [15] 50.6 µM | [16] 32.4 µM | [17] 83.8 µM | [18] > 100 µM | [19] 52.1 µM | [20] > 100 µM

Cc1c(-c2ccccc2)[nH]n(C2=NCCN2)c1=O
inactive: [1] > 100 µM | [2] > 100 µM | [3] > 100 µM | [4] > 100 µM | [5] > 100 µM | [6] > 100 µM | [7] > 100 µM | [8] > 100 µM | [9] > 100 µM | [10] > 100 µM | [11] > 100 µM | [12] > 100 µM | [13] > 100 µM | [14] > 100 µM | [15] > 100 µM | [16] > 100 µM | [17] 52.8 µM | [18] > 100 µM | [19] > 100 µM | [20] > 100 µM
